Tested on: T1, recombinant β-glucosidase of B. altitudinis JYY-02 (bgl)
T1 construct: full-length ORF 1,467 bp, 488 residues, N-terminus MTTIKG from forward primer; E. coli BL21(DE3); 54 kDa
Assay: p-nitrophenol release at […] nm, Lineweaver-Burk plot
Type: biochemical, Bacillus altitudinis
Conditions: citrate-disodium hydrogen phosphate buffer 0.2 M, pH 5.6, 55°C (standard assay); abstract prints 0.331 mM

## O=[N+]([O-])c1ccc(O[C@@H]2O[C@H](CO)[C@@H](O)[C@H](O)[C@H]2O)cc1 [p-nitrophenyl-β-D-glucopyranoside]
  Km: 332 µM

From publication PMC9431551, “Isolation of the Thermostable β-Glucosidase-Secreting Strain Bacillus altitudinis JYY-02 and Its Application in the Production of Gardenia Blue” (Microbiology Spectrum, 2022)
